Reference: ChEMBL document CHEMBL3997806, “Inhibition of veratridine-induced delayed inactivation of the voltage-sensitive sodium channel by synthetic analogs of crambescin B” (Bioorg Med Chem Lett, 2017)
Activity calls are given as the source filed them. The calls are words filed in the database; no cut-off is given here.

Experiments:
Mus musculus = species on record: Mus musculus; assay: Antagonist activity at VSSC in mouse Neuro2a cells assessed as inhibition of peak current at holding potential of -100mV at 100 nM by patch-clamp method; type: cell-based
[1] = target: T1, Sodium channel protein type 2 subunit alpha (Homo sapiens, UniProt Q99250); assay: Antagonist activity at human Nav1.2 expressed in HEK293T cells assessed as inhibition of VTD-induced peak current up to 10 nM by whole cell patch clamp method relative to control; type: cell-based; conditions: HEK-293T
[2] = target: T1, Sodium channel protein type 2 subunit alpha; assay: Antagonist activity at human Nav1.2 expressed in HEK293T cells assessed as inhibition of VTD-induced sustained current by whole cell patch clamp method relative to control; type: cell-based, HEK-293T; conditions: for inhibition: HEK-293T
[3] = target: T1, Sodium channel protein type 2 subunit alpha; assay: Inhibition of Nav1.2 (unknown origin) by cell based assay
[4] = target: T1, Sodium channel protein type 2 subunit alpha; assay: Antagonist activity at human Nav1.2 expressed in HEK293T cells assessed as inhibition of VTD-induced tail current by whole cell patch clamp method relative to control; type: cell-based, HEK-293T; conditions: for inhibition: HEK-293T
[5] = target: Sodium channel protein type 9 subunit alpha (Homo sapiens) (UniProt Q15858); assay: Antagonist activity at human Nav1.7 expressed in HEK293T cells assessed as inhibition of VTD-induced tail current at 1 uM at holding potential of -100mV by whole cell patch clamp method relative to control; type: cell-based; conditions: HEK-293T
Chain of Sodium channel protein type 9 subunit alpha (Homo sapiens) (Q15858 whole entry, looked up): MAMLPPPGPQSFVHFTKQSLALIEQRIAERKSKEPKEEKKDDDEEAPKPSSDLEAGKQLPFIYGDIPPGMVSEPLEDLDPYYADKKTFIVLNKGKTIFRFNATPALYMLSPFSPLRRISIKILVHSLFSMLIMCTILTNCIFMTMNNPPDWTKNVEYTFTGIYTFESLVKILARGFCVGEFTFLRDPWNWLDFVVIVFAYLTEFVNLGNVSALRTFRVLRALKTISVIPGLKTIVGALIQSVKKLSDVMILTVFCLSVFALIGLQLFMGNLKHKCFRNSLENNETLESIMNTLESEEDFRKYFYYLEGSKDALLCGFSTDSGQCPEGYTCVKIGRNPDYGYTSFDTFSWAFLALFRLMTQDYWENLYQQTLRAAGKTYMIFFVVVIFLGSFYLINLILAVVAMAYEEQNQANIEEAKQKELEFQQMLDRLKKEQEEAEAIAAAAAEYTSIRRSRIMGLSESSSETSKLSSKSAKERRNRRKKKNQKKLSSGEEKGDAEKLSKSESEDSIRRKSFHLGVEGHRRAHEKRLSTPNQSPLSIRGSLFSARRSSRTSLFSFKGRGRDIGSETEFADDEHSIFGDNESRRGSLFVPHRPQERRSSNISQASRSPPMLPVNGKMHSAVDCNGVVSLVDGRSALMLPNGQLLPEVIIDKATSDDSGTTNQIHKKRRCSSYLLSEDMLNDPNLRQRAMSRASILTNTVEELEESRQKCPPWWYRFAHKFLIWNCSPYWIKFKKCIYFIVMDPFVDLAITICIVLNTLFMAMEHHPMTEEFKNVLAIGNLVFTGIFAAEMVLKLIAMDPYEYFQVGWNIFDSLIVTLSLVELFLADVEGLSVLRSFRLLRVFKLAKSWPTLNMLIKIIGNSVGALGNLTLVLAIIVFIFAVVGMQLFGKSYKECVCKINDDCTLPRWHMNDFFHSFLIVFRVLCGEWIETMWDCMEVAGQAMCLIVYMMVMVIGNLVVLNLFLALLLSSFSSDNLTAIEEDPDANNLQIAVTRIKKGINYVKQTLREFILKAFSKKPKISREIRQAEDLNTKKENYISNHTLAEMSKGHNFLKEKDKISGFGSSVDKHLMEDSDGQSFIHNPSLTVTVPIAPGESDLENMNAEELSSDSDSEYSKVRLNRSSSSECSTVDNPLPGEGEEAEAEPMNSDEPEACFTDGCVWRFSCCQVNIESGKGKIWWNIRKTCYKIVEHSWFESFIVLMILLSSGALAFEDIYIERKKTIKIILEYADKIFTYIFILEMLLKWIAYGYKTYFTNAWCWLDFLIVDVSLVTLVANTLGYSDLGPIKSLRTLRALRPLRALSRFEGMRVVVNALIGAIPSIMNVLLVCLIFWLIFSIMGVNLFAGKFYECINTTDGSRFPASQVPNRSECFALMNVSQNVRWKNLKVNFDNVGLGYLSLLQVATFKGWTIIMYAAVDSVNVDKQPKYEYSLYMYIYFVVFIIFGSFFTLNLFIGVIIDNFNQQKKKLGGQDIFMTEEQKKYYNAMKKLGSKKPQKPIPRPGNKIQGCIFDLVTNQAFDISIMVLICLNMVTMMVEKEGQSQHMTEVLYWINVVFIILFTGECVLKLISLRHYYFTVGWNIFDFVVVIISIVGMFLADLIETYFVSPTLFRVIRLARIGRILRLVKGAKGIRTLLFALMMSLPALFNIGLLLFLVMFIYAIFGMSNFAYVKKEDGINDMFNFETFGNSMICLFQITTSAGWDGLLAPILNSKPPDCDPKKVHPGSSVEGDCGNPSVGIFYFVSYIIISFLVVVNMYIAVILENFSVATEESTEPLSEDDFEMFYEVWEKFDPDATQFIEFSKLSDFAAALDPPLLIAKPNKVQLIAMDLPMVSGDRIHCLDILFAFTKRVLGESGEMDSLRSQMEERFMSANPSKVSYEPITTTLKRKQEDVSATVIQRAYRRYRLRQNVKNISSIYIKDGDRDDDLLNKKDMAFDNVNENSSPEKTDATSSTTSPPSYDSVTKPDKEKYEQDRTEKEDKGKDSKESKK

[6] = target: Sodium channel protein type 9 subunit alpha (Homo sapiens) (UniProt Q15858); assay: Antagonist activity at human Nav1.7 expressed in HEK293T cells assessed as inhibition of VTD-induced sustained current at 1 uM by whole cell patch clamp method relative to control; type: cell-based; conditions: HEK-293T
[7] = target: Sodium channel protein type 9 subunit alpha (Homo sapiens) (UniProt Q15858); assay: Antagonist activity at human Nav1.7 expressed in HEK293T cells assessed as inhibition of VTD-induced peak current at 1 uM by whole cell patch clamp method relative to control; type: cell-based; conditions: HEK-293T
[8] = target: Sodium channel protein type 8 subunit alpha (Homo sapiens) (UniProt Q9UQD0); assay: Antagonist activity at human Nav1.6 expressed in HEK293T cells assessed as inhibition of VTD-induced peak current at 1 uM by whole cell patch clamp method relative to control; type: cell-based; conditions: HEK-293T
Chain of Sodium channel protein type 8 subunit alpha (Homo sapiens) (Q9UQD0 whole entry, looked up): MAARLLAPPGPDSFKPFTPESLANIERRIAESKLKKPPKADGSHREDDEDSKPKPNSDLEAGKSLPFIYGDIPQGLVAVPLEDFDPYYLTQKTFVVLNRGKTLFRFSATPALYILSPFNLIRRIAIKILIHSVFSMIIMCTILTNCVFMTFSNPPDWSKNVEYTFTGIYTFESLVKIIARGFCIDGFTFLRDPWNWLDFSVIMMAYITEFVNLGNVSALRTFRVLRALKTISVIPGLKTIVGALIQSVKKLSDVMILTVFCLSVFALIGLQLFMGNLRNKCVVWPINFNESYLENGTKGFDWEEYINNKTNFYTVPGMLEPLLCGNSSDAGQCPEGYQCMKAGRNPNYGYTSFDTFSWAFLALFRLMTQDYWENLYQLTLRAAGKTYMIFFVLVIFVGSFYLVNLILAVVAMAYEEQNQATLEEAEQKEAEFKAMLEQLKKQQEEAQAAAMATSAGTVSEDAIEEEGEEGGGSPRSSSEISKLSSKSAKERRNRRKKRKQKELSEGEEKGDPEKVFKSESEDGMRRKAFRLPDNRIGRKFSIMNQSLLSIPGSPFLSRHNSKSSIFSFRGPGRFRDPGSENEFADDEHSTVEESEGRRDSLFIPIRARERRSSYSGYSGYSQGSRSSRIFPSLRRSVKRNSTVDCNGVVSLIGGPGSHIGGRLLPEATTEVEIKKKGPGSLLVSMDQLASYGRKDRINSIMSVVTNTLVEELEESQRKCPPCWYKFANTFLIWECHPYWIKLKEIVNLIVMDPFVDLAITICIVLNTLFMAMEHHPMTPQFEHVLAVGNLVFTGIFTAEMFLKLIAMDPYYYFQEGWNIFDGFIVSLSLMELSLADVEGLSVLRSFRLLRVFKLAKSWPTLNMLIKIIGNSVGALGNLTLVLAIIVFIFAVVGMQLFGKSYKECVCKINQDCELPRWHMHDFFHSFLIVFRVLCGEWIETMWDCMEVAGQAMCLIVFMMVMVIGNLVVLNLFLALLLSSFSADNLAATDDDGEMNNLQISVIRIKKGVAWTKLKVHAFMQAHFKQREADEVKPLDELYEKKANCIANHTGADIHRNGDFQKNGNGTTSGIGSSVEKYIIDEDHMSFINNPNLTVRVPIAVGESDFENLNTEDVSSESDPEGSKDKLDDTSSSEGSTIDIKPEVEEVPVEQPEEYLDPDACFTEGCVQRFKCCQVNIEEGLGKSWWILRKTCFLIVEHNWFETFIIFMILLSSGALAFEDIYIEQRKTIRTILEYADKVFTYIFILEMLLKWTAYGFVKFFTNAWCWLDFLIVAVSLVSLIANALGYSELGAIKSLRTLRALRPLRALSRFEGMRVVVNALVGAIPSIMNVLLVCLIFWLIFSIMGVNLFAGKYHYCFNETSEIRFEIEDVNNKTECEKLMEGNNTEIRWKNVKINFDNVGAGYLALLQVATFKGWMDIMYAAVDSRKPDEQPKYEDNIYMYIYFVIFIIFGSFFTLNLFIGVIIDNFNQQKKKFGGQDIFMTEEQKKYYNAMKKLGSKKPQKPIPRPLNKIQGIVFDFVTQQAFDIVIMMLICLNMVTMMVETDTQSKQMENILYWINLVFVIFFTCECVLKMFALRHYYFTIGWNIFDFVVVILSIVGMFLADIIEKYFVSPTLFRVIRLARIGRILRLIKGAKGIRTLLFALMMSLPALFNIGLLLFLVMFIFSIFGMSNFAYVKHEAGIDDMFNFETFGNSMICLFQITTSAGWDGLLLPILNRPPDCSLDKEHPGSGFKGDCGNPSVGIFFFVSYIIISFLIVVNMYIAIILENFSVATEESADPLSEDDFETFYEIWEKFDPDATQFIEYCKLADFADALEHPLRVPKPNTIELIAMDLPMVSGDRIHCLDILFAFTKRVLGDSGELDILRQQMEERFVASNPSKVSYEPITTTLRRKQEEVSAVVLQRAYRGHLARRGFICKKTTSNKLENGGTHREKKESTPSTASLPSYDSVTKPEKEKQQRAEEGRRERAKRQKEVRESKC

[9] = target: Sodium channel protein type 8 subunit alpha (Homo sapiens) (UniProt Q9UQD0); assay: Antagonist activity at human Nav1.6 expressed in HEK293T cells assessed as inhibition of VTD-induced sustained current at 1 uM by whole cell patch clamp method relative to control; type: cell-based; conditions: HEK-293T
[10] = target: Sodium channel protein type 8 subunit alpha (Homo sapiens) (UniProt Q9UQD0); assay: Antagonist activity at human Nav1.6 expressed in HEK293T cells assessed as inhibition of VTD-induced tail current at 1 uM at holding potential of -100mV by whole cell patch clamp method relative to control; type: cell-based; conditions: HEK-293T
[11] = target: T1, Sodium channel protein type 2 subunit alpha; assay: Ratio of IC50 for Nav1.2 (unknown origin) by cell based assay to IC50 for human Nav1.2 expressed in HEK293T cells assessed as inhibition of VTD-induced tail current
[12] = target: Sodium channel protein type 8 subunit alpha (Homo sapiens) (UniProt Q9UQD0); conditions: HEK-293T, 30 nM
Description: Antagonist activity at human Nav1.6 expressed in HEK293T cells assessed as inhibition of VTD-induced tail current at 30 nM at holding potential of -100mV by whole cell patch clamp method relative to control

[13] = target: Sodium channel protein type 9 subunit alpha (Homo sapiens) (UniProt Q15858); conditions: HEK-293T, 30 nM
Description: Antagonist activity at human Nav1.7 expressed in HEK293T cells assessed as inhibition of VTD-induced peak current at 30 nM by whole cell patch clamp method relative to control

[14] = target: Sodium channel protein type 9 subunit alpha (Homo sapiens) (UniProt Q15858); conditions: HEK-293T, 30 nM; remark: listed apart in the source
Description: Antagonist activity at human Nav1.7 expressed in HEK293T cells assessed as inhibition of VTD-induced sustained current at 30 nM by whole cell patch clamp method relative to control

[15] = target: Sodium channel protein type 8 subunit alpha (Homo sapiens) (UniProt Q9UQD0); conditions: HEK-293T, 30 nM; remark: listed apart in the source
Description: Antagonist activity at human Nav1.6 expressed in HEK293T cells assessed as inhibition of VTD-induced peak current at 30 nM by whole cell patch clamp method relative to control

[16] = target: Sodium channel protein type 9 subunit alpha (Homo sapiens) (UniProt Q15858); conditions: HEK-293T, 30 nM; remark: listed apart in the source
Description: Antagonist activity at human Nav1.7 expressed in HEK293T cells assessed as inhibition of VTD-induced tail current at 30 nM at holding potential of -100mV by whole cell patch clamp method relative to control

[17] = target: Sodium channel protein type 8 subunit alpha (Homo sapiens) (UniProt Q9UQD0); conditions: HEK-293T, 30 nM; remark: listed apart in the source
Description: Antagonist activity at human Nav1.6 expressed in HEK293T cells assessed as inhibition of VTD-induced sustained current at 30 nM by whole cell patch clamp method relative to control

[18] = target: T1, Sodium channel protein type 2 subunit alpha; assay: Ratio of IC50 for Nav1.2 (unknown origin) by cell based assay to IC50 for human Nav1.2 expressed in HEK293T cells assessed as inhibition of VTD-induced sustained current

Row | Structure (SMILES) | inhibition (Mus musculus) | inhibition [1] | IC50 [2] | inhibition [2] | EC50 [3] | IC50 [4] | inhibition [4] | further results
1 | CCCCCCCCCC[C@@H]1NC(=N)N[C@]2(CCCO2)[C@@H]1C(=O)O | inactive | Active | 7.5 nM | Dose-dependent effect | 79 nM | 35 nM | Dose-dependent effect | 
2 | CCCCCCCCCCC1NC(=N)NC2(CCCO2)C1C(=O)O (racemic) |  |  |  |  |  |  |  | inhibition [5]: Active; inhibition [6]: Active; inhibition [7]: Active; inhibition [8]: Active; inhibition [9]: Active; inhibition [10]: Active
3 | CCCCCCCCCC[C@H]1C[C@@]2(CCCO2)NC(=N)N1 |  | Active | 2.1 nM | Dose-dependent effect | 120 nM | 2 nM | Dose-dependent effect | Ratio IC50 [11]: 60
4 | CCCCCCCCCC[C@H]1NC(=N)N[C@@]2(CCCO2)[C@H]1C(=O)O | inactive | Active | 26 nM | Dose-dependent effect | 5.3 nM | 170 nM | Dose-dependent effect | 
5 | NC1=N[C@H](O)[C@H]2[C@H]3O[C@]4(O)O[C@@H]([C@@H](O)[C@@]2(N1)[C@@H]4O)[C@]3(O)CO | Active |  |  |  |  |  |  | inhibition [12]: Active; inhibition [13]: Active; inhibition [14]: Active; inhibition [15]: Active; inhibition [16]: Active; inhibition [17]: Active
6 | CCCCCCCCCC[C@@H]1C[C@]2(CCCO2)NC(=N)N1 |  |  | 0.45 nM | Dose-dependent effect | 12 nM | 0.28 nM | Dose-dependent effect | Ratio IC50 [18]: 43
